Where two headings read alike, the source gives them in different places. Square brackets hold non-standard residues; d marks the D form. Peptide text beside a SMILES is read from it.

The subject of data set [1] is αSynA53T-YFP cells (HEK293T). In words: Cell assay for seeded α-synuclein aggregation (FIG. 19). The data set is classed as cell-based, human. How it is done:
A construct encoding full-length A53T-mutated human α-syn and fused with YFP at the C-terminus was synthesized and introduced into the pMK-RQ expression vector (GeneArt; Thermo Fisher Scientific, USA). The α-synA53T-YFP construct was sub-cloned using the restriction sites NheI (5′) and NotI (3′) in the vector pIRESpuro3 (Clontech; Takara Bio, JPN). HEK293T cells (American Type Culture Collection) were cultured in high-glucose Dulbecco's Modified Eagle's Medium (DMEM; Sigma-Aldrich, USA) which had 10% fetal calf serum (Sigma-Aldrich, USA), 50 units/ml penicillin, and also 50 μg/ml streptomycin (Sigma-Aldrich, USA) added thereto. The cells were cultured at 37° C. in a humidified atmosphere with 5% CO2.
The cells plated in DMEM were transfected with Lipofectamine 2000 (Invitrogen; Thermo Fisher Scientific, USA). Stable cells were selected in DMEM with 1 μg/ml puromycin (EMD Millipore, USA). Monoclonal cell lines were produced by means of fluorescence-activated cell sorting of a polyclonal cell population in 96-well plates using a MoFlo XDP cell sorter (Beckman Coulter, USA). […]
The plates were then incubated at 37° C. in a humidified atmosphere with 5% CO2. On the third day, the cells were imaged in an IN Cell Analyzer 6500HS system (Cytiva, USA) using the blue and green fluorescence channels, and analyzed by the IN Carta Image Analysis software (Cytiva, USA) which had been used to establish an algorithm for identifying intracellular aggregates in living cells. Four wells were used for each condition and 16 images were recorded per well and analyzed by a fully-automated algorithm in order to prevent distortions. […]
In order to validate the inhibitory effect of SVD-1a in cells, use was made of the α-synA53T-YFP cell system which stably expresses human α-syn with the familial A53T mutation, fused with YFP, in HEK293T cells, and the fluorescence-based detection of aggregates makes it possible to clearly show the strongly fluorescent spots within the cells against the background, intracellularly after seeding with PFF oligomers. […] Panels C, F and I show αSynA53T-YFP fluorescence. […]

For data set [2], the target named is WT α-syn (Homo sapiens, UniProt P37840). In words: Single cycle SPR experiment of WT α-syn on CM5-immobilized peptides (FIG. 8). The following applies: 1:1 binding model fit, CM5 chip, PBS pH 7.4, 0.005% Tween-20. How it is done:
Each peptide was immobilized on a CM5 sensor chip surface. WT α-syn was injected in a concentration range of 30-500 nM in PBS, PH 7.4, 0.005% (v/v) Tween-20. Regeneration was carried out after every cycle with 2 M Gua-HCl for 2×30 sec. The KDs were determined with a 1:1 binding model fit, as follows: SVD-1a: 15.7 nM; SVD-6a: 14.0 nM; SVD-10a: 12.3 nM.
(Surface plasmon resonance follows binding to a sensor surface in real time, without labels.)

Data set [3] concerns the target full-length α-syn (Homo sapiens, UniProt P37840). In words: MST measurement of fluorophore-labeled peptides with full-length α-syn (FIG. 10). The data set is classed as binding. The following applies: 100 nM labeled peptide, PBS pH 7.4, 25° C., individual measurement. On the procedure:
The peptides were fluorescence labeled by means of cysteine-maleimide coupling. SVD-1_Cys and SVD 1a_Cys were fluorescence labeled at the C-terminus with a fivefold or tenfold molar excess of TCEP and CF633-PEG2-maleimide (Sigma-Aldrich, USA). The labeling reaction was carried out in 25 mM NaPi, PH 7.0, for 2 h at RT. The labeled peptides were purified at 25° C. using an Agilent 1260 Infinity II System and a C-18 RP-HPLC column (Zorbax 300 SB-C8/SB-C 18, Agilent, USA). The mobile phases consisted of A: water+0.1% TFA, and B: acetonitrile+0.1% TFA. The fluorescence-labeled peptides and proteins were eluted with a gradient of 5-40% (v/v) B in 30 min. The fluorescence-labeled products were fractionated using the absorption wavelength of the fluorophore (CF633: 633 nm) and the pooled samples were subsequently lyophilized and redissolved in the appropriate buffer. The protein concentrations were determined by means of UV-vis and the fluorescence-labeled samples were stored at −20° C.
The experiments for microscale thermophoresis (MST) were carried out using a Monolith NT.115 device (NanoTemper Technologies GmbH, GE). Fluorescence-labeled peptides were diluted in PBS, PH 7.4 to a final concentration of 100 nM. […] The data was evaluated with the thermophoresis effect, using the NT analysis software (version 1.5.41) supplied by the manufacturer. […]

The nature of data set [4]: Solubility of D-peptides in buffer (UV-vis of supernatant after centrifugation). The class given is physicochemical. The following applies: different buffers including PBS, aqueous buffer; different buffer conditions including PBS pH 7.4; 1 h at 37° C., 20 800×g centrifugation; read-out: starting concentration up to which the compound remained completely in the supernatant. The source says: D-enantiomeric peptides with C-terminal amidation were acquired from CASLO (CASLO, DK) as a lyophilized chloride salt powder having a purity of >95%.

In data set [5] the target is α-syn (Homo sapiens, UniProt P37840, A140C). In words: MST measurement of SVD-1 and α-syn (FIG. 2, α-syn 140C-C2-Alexa 647). The class given is binding. The source says:
70% LED power; 60% MST power.

Data set [6] concerns the target WT alpha-synuclein (Homo sapiens, UniProt P37840). Description: Multicycle SPR experiment of WT alpha-synuclein and immobilized SVD-1 (FIG. 3). The class given is binding. On the procedure: WT α-syn was injected in a concentration range of […] in PBS, PH 7.4. Regeneration: 2 M Gua-HCl and 0.1% SDS.
In data set [7] the test system is PC12 cells. The data set is classed as cell-based. The following applies: rat, 24 h, 15 μM. How it is done:
PC12 cells (Leibniz-Institut DSMZ, GE) were cultured at 37° C. on a collagen A-coated (Biochrom GmbH, GE) tissue culture flask in RPMI 1640 medium, supplemented with 5% fetal calf serum and 10% horse serum in an atmosphere humidified to 95% with 5% CO2. 10 000 cells per well in a volume of 100 μl were seeded into collagen A-coated 96-well plates (Thermo Fisher Scientific, USA and incubated for 24 hours at 37° C. and 300 rpm in a thermocycler.
Furthermore, 15 μM of the peptides alone, cell media, buffer without peptide and 0.1% Triton X-100 (cytotoxic compound) were used as controls. After further incubation in a 95% humidified atmosphere with 5% CO2 at 37° C. for 24 hours, the viability of the cells was measured using the Cell Proliferation Kit I (MTT) (Roche Applied Science, CH), following the manufacturer's protocol.
The MTT-formazan product was quantified by measuring the absorbance at 570 nm, corrected by subtracting the absorbance at 660 nm, in a FluoroStar Optima plate reader (BMG labtech, GE). All results were normalized to untreated cells grown only in medium. The significance test was carried out by one-way ANOVA with Bonferroni post-hoc analysis (OriginPro 2020, OriginLab, USA; n=4).
The significance test was carried out by one-way ANOVA with Bonferroni post-hoc analysis: […], ***p≤0.01. The means are stated±SD (n=4).

Data set [8] has as its target α-syn (Homo sapiens, UniProt P37840). In words: Gradient centrifugation of α-syn aggregation samples (FIG. 6). The class given is biochemical. As to conditions: equimolar SVD-1, 9 days, 37° C., no shaking, Iodixanol gradient. On the procedure: No shaking, no glass beads, at 37° C. After 9 days, the triplet samples were combined together and 100 μl was added to an Iodixanol gradient (5-50% (w/v)). 15 fractions, each of 140 μl were analyzed by means of RP-HPLC using a Zorbax 300 SB-C8 column and integrated to α-syn peaks.

The target of data set [9] is α-syn oligomers (Homo sapiens, UniProt P37840). Description: α-syn oligomer elimination, HPLC-SEC of supernatant (FIG. 4). The data set is classed as biochemical. The following applies: SVD-1 150 and 250 μM; 5 μM monomer-equivalent oligomers, 3 days, 900 rpm, 37° C. The source says:
The samples were centrifuged at 21 000×g and the supernatant was loaded onto an HPLC-SEC column.

In data set [1] (25 μM peptide, seeded with soluble α-syn-PFF oligomers, third day), kgvgnleyqlwalegk-NH2 displayed a cells with aggregation of 85%. Moreover, the “inhibition of α-syn aggregation in cells” value in data set [1] (seeded with 30 nM PFF oligomers, day 3, two-stage transfection) is “not”.

Regarding `C[C@H](O)[C@@H](NC(=O)[C@@H](CC(N)=O)NC(=O)[C@@H](Cc1c[nH]c2ccccc12)NC(=O)[C@@H](Cc1ccc(O)cc1)NC(=O)[C@H]1CCCN1C(=O)[C@H]1CCCN1C(=O)[C@@H](CC(N)=O)NC(=O)[C@@H](Cc1c[nH]c2ccccc12)NC(=O)[C@@H](CCC(N)=O)NC(=O)[C@@H](CCC(N)=O)NC(=O)[C@@H](Cc1c[nH]c2ccccc12)NC(=O)[C@@H](Cc1c[nH]cn1)NC(=O)[C@@H](CO)NC(=O)[C@H](N)CO)C(=O)N[C@H](CC(=O)O)C(=O)N[C@H](CO)C(=O)N[C@H](CCCNC(=N)N)C(=O)N[C@H](CCCNC(=N)N)C(=O)N[C@H](CCCNC(=N)N)C(=O)N[C@H](CCCNC(=N)N)C(=O)N[C@H](CCCNC(=N)N)C(N)=O` [SVD-10a, sshwqqwnppywntdsrrrrr] (H-[dS][dS][dH][dW][dQ][dQ][dW][dN][dP][dP][dY][dW][dN][dT][dD][dS][dR][dR][dR][dR][dR]-NH2), in [2], the Kd came to 12.3 nM.

Regarding `CC[C@@H](C)[C@@H](NC(=O)[C@@H](Cc1c[nH]cn1)NC(=O)[C@@H](CCC(=O)O)NC(=O)[C@@H](CCC(N)=O)NC(=O)[C@@H](Cc1c[nH]c2ccccc12)NC(=O)[C@@H](Cc1ccc(O)cc1)NC(=O)[C@H](NC(=O)[C@@H](CCC(=O)O)NC(=O)[C@@H](Cc1c[nH]cn1)NC(=O)[C@H](NC(=O)[C@H]1CCCN1C(=O)[C@@H](CCSC)NC(=O)[C@H](N)CCCCN)[C@H](C)O)[C@H](C)O)C(=O)N[C@H](Cc1c[nH]c2ccccc12)C(=O)N[C@H](Cc1c[nH]cn1)C(=O)N[C@H](C)C(N)=O` [SVD-1, kmpthetywqehiwha] (H-[dK][dM][dP][dT][dH][dE][dT][dY][dW][dQ][dE][dH][dI][dW][dH][dA]-NH2), the Kd in data set [3] amounted to 170 nM; in data set [5] it was 55 nM; in data set [6] (heterogeneous ligand adjustment, PBS pH 7.4, read-out: KD1), 12.5 nM; in data set [6] (read-out: KD2, heterogeneous ligand adjustment, PBS pH 7.4), 2000 nM. For the same molecule, in data set [4], the solubility at 1 h is no less than 1000 µM. Moreover, the “cells saved (cell viability)” value in data set [7] was 89%. In addition, in data set [8], the “fibril formation (fractions F6-F12)” value is recorded as “No fibril formation (F6-F12) was observed”. In data set [9], the “α-syn oligomer in the supernatant” value was “not possible to detect any α-syn oligomer in the supernatant”.

`CC(C)C[C@@H](NC(=O)[C@H]1CCCN1C(=O)[C@@H](CCC(N)=O)NC(=O)[C@@H](CCCNC(=N)N)NC(=O)[C@@H](Cc1c[nH]c2ccccc12)NC(=O)[C@@H](CC(=O)O)NC(=O)[C@H](N)Cc1ccc(O)cc1)C(=O)N[C@H](CO)C(=O)N[C@H](C)C(=O)N[C@H](CO)C(=O)N[C@H](CCCNC(=N)N)C(=O)N[C@H](Cc1ccccc1)C(=O)N[C@H](CC(C)C)C(=O)N[C@H](C)C(=O)N1CCC[C@@H]1C(=O)N[C@H](Cc1c[nH]c2ccccc12)C(=O)N[C@H](CCCNC(=N)N)C(=O)N[C@H](CCCNC(=N)N)C(=O)N[C@H](CCCNC(=N)N)C(=O)N[C@H](CCCNC(=N)N)C(=O)N[C@H](CCCNC(=N)N)C(N)=O` [SVD-6a, ydwrqplsasrflapwrrrrr] (H-[dY][dD][dW][dR][dQ][dP][dL][dS][dA][dS][dR][dF][dL][dA][dP][dW][dR][dR][dR][dR][dR]-NH2) showed a Kd in data set [2] of 14 nM.

The values above are taken from US20250346629A1, “USE OF D-ENANTIOMERIC PEPTIDE LIGANDS OF MONOMERIC ALPHA-SYNUCLEIN FOR THE THERAPY OF VARIOUS SYNUCLEINOPATHIES” (PRIAVOID GMBH, priority 2021, published 2025).
